SMILES strings stand for the structures.

One assay relates to Mouse STC-1 cells. The experiment in a line: STC-1 GLP-1 assay (GLP-1 secretion). The class given is cell-based. The following applies: Mouse STC-1 cells, GLP-1 secretion, 2 h; read-out: Mouse STC-1 HTRF GLP-1 Activity (EC50). The method in brief: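 Secreted active GLP-1 was measured by HTRF after overnight room-temperature incubation of supernatant with the conjugates. Supernatants came from a 2 h, 37° C. compound exposure (12-point half-log series) in HBSS with DPP-IV and protease inhibitors and 0.1% fatty acid free BSA. STC-1 cells had been seeded two days earlier in stripped-serum DMEM; EC50 reported.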

Another assay has as its target T1, mouse TGR5 receptor (Mus musculus, UniProt Q80SS6).
T1 construct: host or cells: HEK293-EBNA (293 c18, ATCC CRL10852)
T1 sequence (Q80SS6 1-329): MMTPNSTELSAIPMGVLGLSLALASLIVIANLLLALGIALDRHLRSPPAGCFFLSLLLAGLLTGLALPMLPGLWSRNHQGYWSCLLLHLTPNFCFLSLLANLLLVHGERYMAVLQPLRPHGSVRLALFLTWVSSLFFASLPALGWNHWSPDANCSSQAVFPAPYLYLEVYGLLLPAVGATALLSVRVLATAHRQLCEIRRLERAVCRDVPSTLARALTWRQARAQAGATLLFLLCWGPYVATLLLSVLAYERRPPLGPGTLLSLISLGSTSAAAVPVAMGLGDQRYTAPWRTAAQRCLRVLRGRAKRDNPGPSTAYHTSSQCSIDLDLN
The experiment in a line: Mouse TGR5 HTRF cAMP production assay (HEK293-EBNA cells, Cisbio cAMP HiRange kit). The class given is cell-based. To be noted: HEK293-EBNA cells overexpressing mouse TGR5, HTRF cAMP assay. The method in brief:
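cAMP accumulation was read by competitive HTRF after 1 h room-temperature compound treatment, with a further 1 h conjugate incubation. Cells were mouse TGR5-overexpressing HEK293-EBNA in serum-free DMEM plus 500 μM IBMX. Compounds ran as 12-point half-log series in duplicate, and EC50 values were reported.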
For orientation: TR-FRET usually uses a lanthanide donor and a delayed reading to cut background.

What is called EC50 is the concentration needed to bring the measured effect to its halfway point. On to `CN(C)CCC1CCN(c2cc(N3CCC[C@H]3C(=O)NCCc3ccc(C(F)(F)F)cc3)nc(C(F)(F)F)n2)CC1` [Compound 5], for which the values for the EC50 with Mouse STC-1 cells and at mouse TGR5 receptor were 100 to 999 nM and less than 100 nM, respectively.
The matching figures for `O=C(O)CCCC1CCN(c2cc(N3CCC[C@H]3C(=O)NCCc3ccc(C(F)(F)F)cc3)nc(C(F)(F)F)n2)CC1` [Compound 9]: less than 100 nM and less than 100 nM.
Consider `N#Cc1ccc(CCNC(=O)[C@@H]2CCCN2c2cc(N3CCC(CCO)CC3)nc(C(F)(F)F)n2)cc1` [Compound 22], for which, in the assay with Mouse STC-1 cells, the concentration giving a half-maximal response (EC50) was less than 100 nM.
On the same count and under the same terms, with `COCC1CCN(c2cc(N3CCC[C@H]3C(=O)NCCc3ccc(C#N)cc3)nc(C(F)(F)F)n2)CC1` [Compound 24] the figure was 100 to 999 nM.
Turning to `N#Cc1ccc(CCNC(=O)[C@@H]2CCCN2c2cc(N3CCC(CCC(=O)O)CC3)nc(C(F)(F)F)n2)cc1` [Compound 28], the figures for the EC50 in the assay with Mouse STC-1 cells and on mouse TGR5 receptor were 100 to 999 nM and less than 100 nM, respectively.
In the case of `N#Cc1ccc(CCNC(=O)[C@@H]2CCCN2c2cc(N3CCC(CCCC(=O)O)CC3)nc(C(F)(F)F)n2)cc1` [Compound 29], the EC50 in the assay on Mouse STC-1 cells was 100 to 999 nM; at mouse TGR5 receptor, less than 100 nM.
`N#CCCN1CCN(c2cc(N3CCC[C@H]3C(=O)NCCc3ccc(C#N)cc3)nc(C(F)(F)F)n2)CC1` [Compound 32]: the values for the concentration for a half-maximal effect (EC50) in the assay on Mouse STC-1 cells and on mouse TGR5 receptor were 100 to 999 nM and less than 100 nM, respectively.
The matching figures for `COc1cc(C(F)(F)F)ccc1CCNC(=O)[C@@H]1CCCN1c1cc(N2CCC(CCCC(=O)O)CC2)nc(C(F)(F)F)n1` [Compound 34]: less than 100 nM and less than 100 nM.
Take `N#Cc1ccc(CCNC(=O)[C@@H]2CCCN2c2cc(N3CCC(CCN)CC3)nc(C(F)(F)F)n2)cc1` [Compound 50, (S)-1-(6-(4-(2-aminoethyl)piperidin-1-yl)-2-(trifluoromethyl)pyrimidin-4-yl)-N-(4-cyanophenethyl)pyrrolidine-2-carboxamide]: in the assay with Mouse STC-1 cells, the EC50 is 1000 to 30000 nM.
`N#Cc1ccc(CCNC(=O)[C@@H]2CCCN2c2cc(N3CCC(CCC(=O)NCCS(=O)(=O)O)CC3)nc(C(F)(F)F)n2)cc1` [Compound 56, (S)-2-(3-(1-(6-(2-((4-cyanophenethyl)carbamoyl)pyrrolidin-1-yl)-2-(trifluoromethyl)pyrimidin-4-yl)piperidin-4-yl)propanamido)ethanesulfonic acid]: the EC50 with Mouse STC-1 cells was 100 to 999 nM; at mouse TGR5 receptor it was less than 100 nM.
On to `COc1cc(C(F)(F)F)ccc1CCNC(=O)[C@@H]1CCCN1c1cc(N2CCC(CCCC(=O)NCCS(=O)(=O)O)CC2)nc(C(F)(F)F)n1` [Compound 57, (S)-2-(4-(1-(6-(2-((2-methoxy-4-(trifluoromethyl)phenethyl)carbamoyl)-pyrrolidin-1-yl)-2-(trifluoromethyl)-pyrimidin-4-yl)piperidin-4-yl)butanamido)ethanesulfonic acid], for which the EC50 in the assay with Mouse STC-1 cells and at mouse TGR5 receptor was less than 100 nM throughout.
With `O=C(CCCC1CCN(c2cc(N3CCC[C@H]3C(=O)NCCc3ccc(C(F)(F)F)cc3)nc(C(F)(F)F)n2)CC1)NCCS(=O)(=O)O` [Compound 58, (S)-2-(4-(1-(2-(trifluoromethyl)-6-(2-((4-(trifluoromethyl)phenethyl)-carbamoyl)-pyrrolidin-1-yl)-pyrimidin-4-yl)piperidin-4-yl)butanamido)ethanesulfonic acid], the EC50 in the assay with Mouse STC-1 cells and on mouse TGR5 receptor was less than 100 nM throughout.
Turning to `NS(=O)(=O)CCNC(=O)CCCC1CCN(c2cc(N3CCC[C@H]3C(=O)NCCc3ccc(C(F)(F)F)cc3)nc(C(F)(F)F)n2)CC1` [Compound 59, (S)-1-(6-(4-(4-oxo-4-((2-sulfamoylethyl)amino)butyl)piperidin-1-yl)-2-(trifluoromethyl)pyrimidin-4-yl)-N-(4-(trifluoromethyl)phenethyl)-pyrrolidine-2-carboxamide], the concentration for a half-maximal effect (EC50) in the assay on Mouse STC-1 cells and at mouse TGR5 receptor was less than 100 nM throughout.
Regarding `O=C(CCCC1CCN(c2cc(N3CCC[C@H]3C(=O)NCCc3ccc(C(F)(F)F)cc3)nc(C(F)(F)F)n2)CC1)NCCCS(=O)(=O)O` [Compound 60, (S)-3-(4-(1-(2-(trifluoromethyl)-6-(2-((4-(trifluoromethyl)phenethyl)carbamoyl)pyrrolidin-1-yl)pyrimidin-4-yl)piperidin-4-yl)butanamido)propane-1-sulfonic acid], the EC50 with Mouse STC-1 cells and at mouse TGR5 receptor was less than 100 nM throughout.
With `N#Cc1ccc(CCNC(=O)[C@@H]2CCCN2c2cc(N3CCC(CCCC(=O)NCCS(=O)(=O)O)CC3)nc(C(F)(F)F)n2)cc1` [Compound 61, (S)-2-(4-(1-(6-(2-((4-cyanophenethyl)carbamoyl)pyrrolidin-1-yl)-2-(trifluoromethyl)pyrimidin-4-yl)-piperidin-4-yl)butanamido)ethanesulfonic acid], the concentration for a half-maximal effect (EC50) in the assay with Mouse STC-1 cells and on mouse TGR5 receptor was less than 100 nM throughout.
In the case of `N#Cc1ccc(CCNC(=O)[C@@H]2CCCN2c2cc(N3CCC(CCCC(=O)NCCS(N)(=O)=O)CC3)nc(C(F)(F)F)n2)cc1` [Compound 62, (S)-N-(4-cyanophenethyl)-1-(6-(4-(4-oxo-4-((2-sulfamoylethyl)amino)butyl)piperidin-1-yl)-2-(trifluoromethyl)pyrimidin-4-yl)pyrrolidine-2-carboxamide], the concentration for a half-maximal effect (EC50) in the assay with Mouse STC-1 cells and on mouse TGR5 receptor was less than 100 nM in each case.
`N#Cc1ccc(CCNC(=O)[C@@H]2CCCN2c2cc(N3CCC(CCCC(=O)NCCCS(=O)(=O)O)CC3)nc(C(F)(F)F)n2)cc1` [Compound 63, (S)-3-(4-(1-(6-(2-((4-cyanophenethyl)carbamoyl)pyrrolidin-1-yl)-2-(trifluoromethyl)pyrimidin-4-yl)-piperidin-4-yl)butanamido)propane-1-sulfonic acid]: the half-maximal effective concentration (EC50) in the assay on Mouse STC-1 cells and on mouse TGR5 receptor was less than 100 nM in each case.
Take `N#Cc1ccc(CCNC(=O)[C@@H]2CCCN2c2cc(N3CCC(CCCC(=O)NCC(=O)O)CC3)nc(C(F)(F)F)n2)cc1` [Compound 103, (S)-2-(4-(1-(6-(2-((4-cyanophenethyl)carbamoyl)pyrrolidin-1-yl)-2-(trifluoromethyl)pyrimidin-4-yl)piperidin-4-yl)butanamido)acetic acid]: the EC50 in the assay with Mouse STC-1 cells and at mouse TGR5 receptor was less than 100 nM throughout.
Regarding `N#Cc1ccc(CCNC(=O)[C@@H]2CCCN2c2cc(N3CCC(CCCC(=O)NCCC(=O)O)CC3)nc(C(F)(F)F)n2)cc1` [Compound 104, (S)-3-(4-(1-(6-(2-((4-cyanophenethyl)carbamoyl)pyrrolidin-1-yl)-2-(trifluoromethyl)pyrimidin-4-yl)-piperidin-4-yl)butanamido)-propanoic acid], the EC50 with Mouse STC-1 cells is 100 to 999 nM; on mouse TGR5 receptor it was less than 100 nM.
Taken in the same sequence, the figures for `N#Cc1ccc(CCNC(=O)[C@@H]2CCCN2c2cc(N3CCC(CCNC(=O)NCCS(=O)(=O)NCC(=O)O)CC3)nc(C(F)(F)F)n2)cc1` [Compound 107] were 100 to 999 nM and less than 100 nM.
In the case of `N#Cc1ccc(CCNC(=O)[C@@H]2CCCN2c2cc(N3CCC(CCCC(=O)NCCC(=O)NC(CO)(CO)CO)CC3)nc(C(F)(F)F)n2)cc1` [Compound 109, (S)—N-(4-cyanophenethyl)-1-(6-(4-(4-((3-((1,3-dihydroxy-2-(hydroxymethyl)propan-2-yl)amino)-3-oxopropyl)amino)-4-oxobutyl)piperidin-1-yl)-2-(trifluoromethyl)-pyrimidin-4-yl)pyrrolidine-2-carboxamide], the values for the concentration giving a half-maximal response (EC50) with Mouse STC-1 cells and on mouse TGR5 receptor were 100 to 999 nM and less than 100 nM, respectively.
Taken in the same sequence, the figures for `N#Cc1ccc(CCNC(=O)[C@@H]2CCCN2c2cc(N3CCC(CCCC(=O)NCCNc4ncc(C(=O)NCCS(=O)(=O)O)cn4)CC3)nc(C(F)(F)F)n2)cc1` [Compound 112, (S)-2-(2-((2-(4-(1-(6-(2-((4-cyanophenethyl)carbamoyl)pyrrolidin-1-yl)-2-(trifluoromethyl)pyrimidin-4-yl)piperidin-4-yl)butanamido)ethyl)amino)-pyrimidine-5-carboxamido)ethanesulfonic acid] were less than 100 nM and less than 100 nM.
Taken in the same sequence, the figures for `N#Cc1ccc(CCNC(=O)[C@@H]2CCCN2c2cc(N3CCC(CCNC(=O)NCCC(=O)NCCS(=O)(=O)O)CC3)nc(C(F)(F)F)n2)cc1` [Compound 113, (S)-2-(3-(3-(2-(1-(6-(2-((4-cyanophenethyl)carbamoyl)pyrrolidin-1-yl)-2-(trifluromethyl)pyrimidin-4-yl)piperidin-4-yl)ethyl)ureido)-propanamido)-ethanesulfonic acid] were 100 to 999 nM and less than 100 nM.
Turning to `N#Cc1ccc(CCNC(=O)[C@@H]2CCN2c2cc(N3CCC(CO)CC3)nc(C(F)(F)F)n2)cc1` [Compound 219, (S)—N-(4-cyanophenethyl)-1-(6-(4-(hydroxymethyl)piperidin-1-yl)-2-(trifluoromethyl)pyrimidin-4-yl)azetidine-2-carboxamide], the 50% effective concentration (EC50) with Mouse STC-1 cells was less than 100 nM.
For the compound `N#Cc1ccc(CCNC(=O)[C@@H]2CCCN(c3cc(N4CCC(CO)CC4)nc(C(F)(F)F)n3)C2)cc1` [Compound 308, (R)—N-(4-cyanophenethyl)-1-(6-(4-(hydroxymethyl)piperidin-1-yl)-2-(trifluoromethyl)pyrimidin-4-yl)piperidine-3-carboxamide], the EC50 in the assay with Mouse STC-1 cells is 100 to 999 nM.

The values above are taken from patent US10654834B2 (Venenum Biodesign, LLC, priority 2016, dated 2020).
